In PMC8596301 (Frontiers in Pharmacology, 2021):
Like-named read-outs stand apart in the source and are kept apart here.

Tests used:
μOR = μOR (Homo sapiens, UniProt P35372); assay: biochemical; format: binding
κOR = κOR (Homo sapiens, UniProt P41145); assay: biochemical; format: binding
C57Bl/6 male mice [1] = assay: Brief and extended conditioned place preference paradigms; format: in vivo, mouse
Source text: Mice were conditioned to drugs and vehicle as described previously in two-chamber conditioned place preference (CPP) boxes in a counterbalanced, unbiased approach for either two drug conditioning sessions over 2 days (brief) or four drug conditioning sessions over 8 days (extended) ([Váradi et al., 2015]; [Gutridge et al., 2020]). For brief and extended conditioned place preference experiments, separate groups of mice were used for each drug dose. A summary of all statistical analyses for the CPP data can be found in Supplemental Table S4. In brief, all CPP data were analyzed with two-tailed, paired t tests comparing time spent on the drug-paired side pre- and post-conditioning.

WT and δOR KO mice = assay: Seizure assay (modified Racine scale); format: in vivo, mouse
Protocol: To assess drug-induced seizurogenic activity, mice were placed in a clear plastic cylinder (25 cm diameter, 35 cm height) immediately following drug injection and their activity was recorded in a well-lit, quiet room using iSpy camera software (iSpyConnect.com). A recording time of 90 min was chosen for the tested compounds based on previous observations of seizures time lengths in experiments with 30 mg∙kg^−1 paynantheine. If animals were not presenting with seizure activity after 30 min, the recording time was shortened accordingly. Seizure severity was scored based on the modified Racine scale (half-scores allowed) in bins of 3–5 min. Onset to first seizure symptom, onset to highest Racine score, and highest Racine score were also assessed. A summary of all statistical analyses for the seizure data can be found in Supplemental Table S3. In brief, seizure-like behavior between wild type and δOR KO mice was compared with a two-tailed, unpaired t test with Welch’s correction on area under the curve data generated from graphing the highest Racine score per time bin over 90 min for each mouse.

C57Bl/6 male mice [2] = assay: Tail flick thermal nociception assay; format: in vivo, mouse
δOR KO mice = assay: Two-bottle choice alcohol paradigm (drinking in the dark, 10% ethanol vs. water); format: in vivo, mouse; conditions: for Ethanol consumption: δOR KO male mice
Protocol: (§1) Mice were subject to drinking in the dark (DID), limited access (4 h per day), two-bottle choice (10% ethanol vs. water) paradigm in which they were trained to consume alcohol voluntarily as previously described ([Rhodes et al., 2005]; [van Rijn and Whistler, 2009]). Mice reached stable alcohol consumption within 3 weeks of training, and after the third week, drug injections were administered prior to the daily drinking session on Friday. Drug’s effect on alcohol consumption was measured as the change in Friday’s alcohol intake minus the average alcohol intake from the preceding Tuesday–Thursday of that week (g∙kg^−1). A summary of all statistical analyses for the drinking data can be found in Supplemental Tables S6–S9. In brief, results from two-bottle choice alcohol consumption paradigms were assessed for statistical significance using RM two-way ANOVA for main effects of drug dose, treatment day, and drug dose × treatment day; Sidak’s multiple comparisons (MC) between alcohol consumption baseline (Tuesday–Thursday average) vs. treatment day consumption (Friday) were then used as the post hoc test for each drug dose tested. The same RM two-way ANOVA and Sidak’s MC post hoc analyses were used for water consumption and ethanol preference data. […] Sex differences between baseline data were evaluated using RM two-way ANOVA for main effects of sex, treatment baseline, and sex × treatment baseline; Sidak’s multiple comparisons (MC) between male and female mice were then used as the post hoc test for each treatment week tested.

HA-mouse µOR [3] = target: T1, HA-mouse µOR (Mus musculus, UniProt P42866); conditions: cited from earlier work
T1 construct: expressed in transfected cells; host or cells: HEK cells (HEK-293), transient, co-transfected with pGloSensor22F

FLAG-mouse δOR [4] = target: T2, FLAG-mouse δOR (Mus musculus, UniProt P32300); design: method as in Gutridge et al., 2020; conditions: cited from earlier work
T2 construct: expressed in transfected cells; host or cells: HEK cells (HEK-293), transient, co-transfected with pGloSensor22F

FLAG-mouse κOR [5] = target: T3, FLAG-mouse κOR (Mus musculus, UniProt P33534); design: method as in Gutridge et al., 2020; conditions: cited from earlier work
T3 construct: expressed in transfected cells; host or cells: HEK cells (HEK-293), transient, co-transfected with pGloSensor22F

wild-type C57Bl/6 mice [6] = conditions: 10 and 30 mg∙kg^−1; male mice; ref Gutridge et al., 2020; cited from earlier work
[7] = design: method as in Kamble et al., 2021; conditions: rats; oral; 1.1 mg∙kg^−1; ref Kamble et al., 2021; cited from earlier work
human ORs = test system: human ORs; design: method as in Kruegel et al., 2016; conditions: ref Kruegel et al., 2016; cited from earlier work
C57Bl/6 male mice [8] = conditions: ref Gutridge et al., 2020; cited from earlier work
C57Bl/6 male mice [9] = assay: Locomotor evaluation (ambulation)
δOR = δOR (Homo sapiens, UniProt P41143); assay: biochemical; format: binding
HA-mouse µOR [10] = target: T1, HA-mouse µOR; assay: cell-based
FLAG-mouse δOR [11] = target: T2, FLAG-mouse δOR; assay: cell-based
FLAG-mouse κOR [12] = target: T3, FLAG-mouse κOR; assay: cell-based
wild-type C57Bl/6 mice [13] = assay: Two-bottle choice alcohol paradigm (drinking in the dark, 10% ethanol vs. water); format: in vivo, mouse
Protocol: as §1

[14] = Maximum tolerated dose (side effect profile); conditions: C57Bl/6, mouse, in vivo, sc, 10 mg∙kg^−1
[15] = ref Gutridge et al., 2020, read-out: cAMP IC50
[16] = HEK293, read-out: cAMP α (% inhibition at maximal efficacy)
[17] = 10 mg∙kg^−1 s.c., WT male and female mice
[18] = 7-hydroxyspeciogynine 10 mg∙kg^−1 s.c., WT male mice

T1 sequence (P42866 whole entry): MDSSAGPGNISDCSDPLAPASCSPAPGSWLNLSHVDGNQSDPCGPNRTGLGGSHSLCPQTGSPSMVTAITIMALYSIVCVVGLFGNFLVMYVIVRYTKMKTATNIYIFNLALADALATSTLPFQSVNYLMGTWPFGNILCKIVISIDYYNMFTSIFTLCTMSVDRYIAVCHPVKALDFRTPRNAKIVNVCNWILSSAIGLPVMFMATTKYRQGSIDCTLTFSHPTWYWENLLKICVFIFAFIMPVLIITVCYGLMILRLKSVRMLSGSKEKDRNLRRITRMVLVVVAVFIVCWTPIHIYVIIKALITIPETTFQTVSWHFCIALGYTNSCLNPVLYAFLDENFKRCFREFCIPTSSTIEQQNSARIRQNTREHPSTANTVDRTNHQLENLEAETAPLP
T3 sequence (P33534 whole entry): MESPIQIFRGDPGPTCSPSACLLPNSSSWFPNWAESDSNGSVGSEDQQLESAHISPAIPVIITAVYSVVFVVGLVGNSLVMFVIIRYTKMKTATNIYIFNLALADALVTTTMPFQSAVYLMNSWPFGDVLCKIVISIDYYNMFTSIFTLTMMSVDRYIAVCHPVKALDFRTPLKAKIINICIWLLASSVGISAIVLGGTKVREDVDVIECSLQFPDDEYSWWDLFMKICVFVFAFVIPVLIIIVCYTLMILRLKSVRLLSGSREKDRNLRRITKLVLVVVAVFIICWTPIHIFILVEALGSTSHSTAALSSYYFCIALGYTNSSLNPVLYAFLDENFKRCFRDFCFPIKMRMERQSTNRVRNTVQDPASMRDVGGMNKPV
T2 sequence (P32300 whole entry): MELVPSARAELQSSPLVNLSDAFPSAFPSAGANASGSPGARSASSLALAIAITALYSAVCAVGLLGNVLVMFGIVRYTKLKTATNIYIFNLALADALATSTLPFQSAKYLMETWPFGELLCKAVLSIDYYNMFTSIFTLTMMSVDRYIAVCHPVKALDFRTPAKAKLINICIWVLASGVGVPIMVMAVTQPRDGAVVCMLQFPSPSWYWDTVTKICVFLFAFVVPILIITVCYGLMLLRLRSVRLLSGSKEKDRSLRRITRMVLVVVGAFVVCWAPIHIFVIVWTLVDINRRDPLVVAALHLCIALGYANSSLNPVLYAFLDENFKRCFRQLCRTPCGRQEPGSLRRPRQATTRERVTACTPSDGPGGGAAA
Chain of κOR (P41145 whole entry): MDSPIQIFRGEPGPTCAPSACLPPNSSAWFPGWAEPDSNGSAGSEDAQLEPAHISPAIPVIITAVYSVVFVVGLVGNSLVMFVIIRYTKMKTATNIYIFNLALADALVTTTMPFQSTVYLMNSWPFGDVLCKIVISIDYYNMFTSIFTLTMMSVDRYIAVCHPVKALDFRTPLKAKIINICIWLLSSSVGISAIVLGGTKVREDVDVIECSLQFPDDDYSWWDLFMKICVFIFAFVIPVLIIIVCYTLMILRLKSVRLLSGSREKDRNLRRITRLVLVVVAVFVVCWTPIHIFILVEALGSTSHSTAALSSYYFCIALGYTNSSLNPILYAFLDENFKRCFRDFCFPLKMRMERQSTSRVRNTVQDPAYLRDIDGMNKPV
Chain of μOR (P35372 whole entry): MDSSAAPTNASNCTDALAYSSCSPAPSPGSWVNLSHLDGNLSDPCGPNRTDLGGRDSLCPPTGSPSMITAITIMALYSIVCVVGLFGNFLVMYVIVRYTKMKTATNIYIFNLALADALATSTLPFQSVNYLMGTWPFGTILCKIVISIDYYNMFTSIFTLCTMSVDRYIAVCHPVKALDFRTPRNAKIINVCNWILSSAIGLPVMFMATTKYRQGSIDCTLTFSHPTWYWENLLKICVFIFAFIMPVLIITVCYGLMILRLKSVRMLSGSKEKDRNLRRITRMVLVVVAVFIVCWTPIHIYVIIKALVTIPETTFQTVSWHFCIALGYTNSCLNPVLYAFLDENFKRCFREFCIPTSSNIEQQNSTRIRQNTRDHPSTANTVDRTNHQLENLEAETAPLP
Chain of δOR (P41143 whole entry): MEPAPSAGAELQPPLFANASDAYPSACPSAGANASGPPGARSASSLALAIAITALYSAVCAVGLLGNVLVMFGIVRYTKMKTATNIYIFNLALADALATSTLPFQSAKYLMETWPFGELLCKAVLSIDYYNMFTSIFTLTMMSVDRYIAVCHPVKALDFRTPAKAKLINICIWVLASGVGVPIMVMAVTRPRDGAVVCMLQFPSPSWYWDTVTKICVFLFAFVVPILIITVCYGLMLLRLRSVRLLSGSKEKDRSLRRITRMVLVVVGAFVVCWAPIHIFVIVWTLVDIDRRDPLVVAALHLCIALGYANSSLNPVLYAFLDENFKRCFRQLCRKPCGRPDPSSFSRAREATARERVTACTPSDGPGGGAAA

In the case of `C=C[C@H]1CN2CCc3c([nH]c4cccc(OC)c34)[C@@H]2C[C@@H]1/C(=C\OC)C(=O)OC` [PAYN, paynantheine], the Ki (μOR) is reported as 0.52 µM, the Ki (κOR; Binding Ki (µM)) is reported as 4 µM and the Ki (κOR; Binding pKi) is reported as 3.16 µM. For the same compound, the “Conditioned place preference, extended CPP paradigm” value (C57Bl/6 male mice [1]; 10 mg∙kg^−1 i.p., four drug conditioning sessions, male mice) was “did not produce CPP nor CPA”, the “Conditioned place preference, brief CPP paradigm” value (C57Bl/6 male mice [1]; 10 mg∙kg^−1 i.p., two drug conditioning sessions, male mice) was “modest conditioned place aversion” and the “Block of morphine CPP” value (C57Bl/6 male mice [1]; 10 and 30 mg∙kg^−1 i.p. pretreatment, morphine 6 mg∙kg^−1, brief CPP) was “neither dose blocks morphine CPP”. For the same compound, the “Convulsive behaviors, Racine level” value (WT and δOR KO mice; 30 mg∙kg^−1 i.p., wild type and δOR KO mice) was 1–2, the “Block of morphine analgesia” value (C57Bl/6 male mice [2]; 10 mg∙kg^−1 i.p., morphine 6 mg∙kg^−1 s.c.) was “does not block morphine analgesia” and the “Block of morphine analgesia” value (C57Bl/6 male mice [2]; 30 mg∙kg^−1 i.p., morphine 6 mg∙kg^−1 s.c.) was “blocks morphine analgesia”. The “Block of antinociception produced by 6 mg∙kg^−1 morphine” value (C57Bl/6 male mice [2]; 10 and 30 mg∙kg^−1 i.p., 10 min before morphine s.c.) was “dose-dependently blocked antinociception”, the “Antinociceptive effect (agonist mode, %MPE)” value (C57Bl/6 male mice [2]; 10 and 30 mg∙kg^−1 i.p., 30 min) was “neither the 10 nor 30 mg∙kg^−1 dose displayed meaningful antinociceptive effects” and the Alcohol consumption (δOR KO mice; paynantheine 10 mg∙kg^−1, male δOR KO mice) was “decreases alcohol consumption in δOR KO mice”. The “cAMP pIC50” value (HA-mouse µOR [3]) was 5.4 ± 0.1, the “cAMP α” value (HA-mouse µOR [3]) was 100 ± 0 and the IC50 (HA-mouse µOR [3]; read-out: cAMP IC50) was 4.08 µM. The “cAMP α” value (FLAG-mouse δOR [4]; normalized to Leu-enkephalin, ref Gutridge et al., 2020) was 64 ± 13, the IC50 (FLAG-mouse δOR [4]; [15]) was 3.55 µM and the “cAMP pIC50” value (FLAG-mouse δOR [4]; ref Gutridge et al., 2020) was 5.6 ± 0.2. The “cAMP α” value (FLAG-mouse κOR [5]; normalized to U50,488, ref Gutridge et al., 2020) was 95 ± 5, the IC50 (FLAG-mouse κOR [5]; [15]) was 7.43 µM and the Alcohol intake (wild-type C57Bl/6 mice [6]) was “dose-dependently decreases alcohol intake”. The “Detectability in plasma over time” value [7] was “undetectable after an hour”, the Tmax in plasma [7] was 10 min and the “Functional activity at human ORs” value (human ORs) was “weak antagonist”. The “Hyperlocomotion at effective dose” value (C57Bl/6 male mice [8]) was “does not produce hyperlocomotion” and the “Effect on hyperlocomotion induced by 6 mg∙kg^−1 morphine” value (C57Bl/6 male mice [9]; 10 and 30 mg∙kg^−1 i.p., data from CPP conditioning sessions) was “dose-dependently attenuated hyperlocomotion”.
Work on `CC[C@H]1CN2CC[C@@]3(O)C(=Nc4cccc(OC)c43)[C@@H]2C[C@@H]1/C(=C\OC)C(=O)OC` [7OH SPG, 7-Hydroxyspeciogynine] yielded a Ki (δOR) of 0.46 µM, a Ki (κOR; Binding Ki (µM)) of 1.63 µM and an IC50 (HA-mouse µOR [10]) of 0.61 µM. The Emax (HA-mouse µOR [10]; [16]) was 66 ± 6%, the IC50 (FLAG-mouse δOR [11]) was 2.27 µM and the Emax (FLAG-mouse δOR [11]; [16]) was 76 ± 6%. The IC50 (FLAG-mouse κOR [12]) was 7.71 µM, the Emax (FLAG-mouse κOR [12]; [16]) was 80 ± 20% and the “Conditioned place preference, extended protocol” value (C57Bl/6 male mice [1]; 10 mg∙kg^−1 s.c., four conditioning sessions, male WT mice) was “did not develop conditioned place preference”. The Seizures (WT and δOR KO mice; 10 mg∙kg^−1 s.c., 30 min) was “nor induce noticeable seizures”, the “Block of morphine analgesia” value (C57Bl/6 male mice [2]; 10 mg∙kg^−1 s.c., then morphine 6 mg∙kg^−1 s.c. 10 min later) was “did not produce antinociception (paired, two-tailed t test, t = 0.6193, df = 9, p = 0.5511) or block morphine analgesia” and the “Antinociception (agonist mode)” value (C57Bl/6 male mice [2]; 10 mg∙kg^−1 s.c., male mice) was “did not produce antinociception”. The “Ethanol consumption, water consumption, ethanol preference” value (wild-type C57Bl/6 mice [13]; 3 mg∙kg^−1 s.c., WT female mice) was “did not significantly modulate ethanol consumption, water consumption, or ethanol preference”, the “Δ ethanol intake, males and females pooled” value (wild-type C57Bl/6 mice [13]; 3 mg∙kg^−1 s.c., WT male and female mice) was “significant ethanol modulation effect” and the “Δ ethanol preference, males and females pooled” value (wild-type C57Bl/6 mice [13]; [17]) was “significant decrease in ethanol preference”. The “Δ water consumption, males and females pooled” value (wild-type C57Bl/6 mice [13]; [17]) was “concomitant increase in water consumption was evident”, the “Decrease in ethanol consumption” value (wild-type C57Bl/6 mice [13]; 10 mg∙kg^−1 s.c., WT mice) was 1.2 ± 0.2 g/kg and the “Reduction in ethanol consumption” value (wild-type C57Bl/6 mice [13]; 10 mg∙kg^−1 s.c., WT mice) was 40 ± 7%. The Ethanol preference (wild-type C57Bl/6 mice [13]; [18]) was “corresponding decrease in ethanol preference”, the Water consumption (wild-type C57Bl/6 mice [13]; [18]) was “concomitant increase in water consumption” and the Alcohol intake (wild-type C57Bl/6 mice [13]; 7-hydroxyspeciogynine 3 and 10 mg∙kg^−1 s.c., wild-type male mice) was “reduced alcohol intake in a dose-dependent manner”. The Ethanol consumption (δOR KO mice; 7-hydroxyspeciogynine 3 mg∙kg^−1 s.c.) was “lack of effect”, the Ethanol consumption (δOR KO mice; 7-hydroxyspeciogynine 10 mg∙kg^−1 s.c.) was “significantly decreased ethanol consumption” and the Ambulation (C57Bl/6 male mice [9]; 10 mg∙kg^−1 s.c., data from CPP experiment) was “did not significantly alter ambulation”. For the same compound, the MTD at 10 days [14] was at least 10 mg/kg.
